Literature values, collected in patent US5661161A, “Inhibitors of farnesyl-protein transferase” (Merck & Co., Inc., priority 1995, dated 1997).

System: farnesyl-protein transferase
Conditions: literature; via inhibition of HMG-CoA reductase

Q: With `CC[C@H](C)C(=O)O[C@H]1CCC=C2C=C[C@H](C)[C@H](CC[C@@H]3C[C@@H](O)CC(=O)O3)[C@H]21` [compactin] as the compound, how does the “Indirect inhibition of farnesyl-protein transferase in vivo” value read?
A: The value was “Indirect inhibition”.

Q: With `CC[C@H](C)C(=O)O[C@H]1C[C@@H](C)C=C2C=C[C@H](C)[C@H](CC[C@@H]3C[C@@H](O)CC(=O)O3)[C@H]21` [lovastatin] as the compound, how does the “Indirect inhibition of farnesyl-protein transferase in vivo” value read?
A: Its value is “Indirect inhibition”.
